Consider 4 cell lines from the supplement of paper PMC10307832.

Assay in all cases: relative viability (nuclei count vs DMSO), 5 days (fraction); higher = more cells survive
Compound in assay [1]: C1=CC2=NC=CN=C2C=C1/C=C/3\C(=O)NC(=O)S3
In a few lines: (§1)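 On vehicle-anchored 1536-well plates, lung cancer cell lines held overnight at 37 °C were pinned with five library-drug doses (not always all listed) spaced by √10. With no medium change over 5 days, they were then fixed, permeabilised and Hoechst-stained in one step and imaged at 4×. MetaXpress counted nuclei, and viability is the median across plates of treated-well over vehicle-well nuclei. Acceptance needed control CV below 25% and at least one doubling.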

Compound in the next assay: CCN1CCN(c2ccc(Nc3cc(N(C)C(=O)Nc4c(Cl)c(OC)cc(OC)c4Cl)ncn3)cc2)CC1 [BGJ398]
In outline:
as §1

Compound in the assay “BGJ398 + Navitoclax”: CCN1CCN(c2ccc(Nc3cc(N(C)C(=O)Nc4c(Cl)c(OC)cc(OC)c4Cl)ncn3)cc2)CC1 [BGJ398] + CC1(C)CCC(c2ccc(Cl)cc2)=C(CN2CCN(c3ccc(C(=O)NS(=O)(=O)c4ccc(N[C@H](CCN5CCOCC5)CSc5ccccc5)c(S(=O)(=O)C(F)(F)F)c4)cc3)CC2)C1 [Navitoclax] (partner 0.5 µM)
In outline:
(§2)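 Cells from lung cancer lines were seeded into 1536-well plates and, one day later, dosed by pin tool. Treatments were either a single drug or a fixed dose of an anchor drug with five library-drug doses (not always all listed) in √10 steps. After 5 days, nuclei were stained in a one-step fixation (final 0.05% Triton X-100, 1% formaldehyde, 1 ug/ml Hoechst) and counted on 4× images, and relative viability is the treated-to-vehicle nuclei ratio, as the median of duplicate plates.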

Compound in assay [2]: C1=CC2=NC=CN=C2C=C1/C=C/3\C(=O)NC(=O)S3 + CC(=O)Nc1cccc(-n2c(=O)n(C3CC3)c(=O)c3c(Nc4ccc(I)cc4F)n(C)c(=O)c(C)c32)c1 [Trametinib] (partner 0.02 µM)
In outline: as §2

For the cell line LCLC-97TM1, the relative viability in assay [1] (0.02 µM) stood at 0.822; in assay [1] (0.06325 µM), 1.02; in assay [1] (0.2 µM), 1.03; in assay [1] (0.6325 µM), 0.906; in assay [1] (2 µM) it was 0.214; with BGJ398 (0.01 µM), 0.778. Also, the relative viability with BGJ398 (0.03162 µM) stood at 1.09; with BGJ398 (0.1 µM), 1.02; in the assay with BGJ398 (0.3162 µM), 0.962; with BGJ398 (1 µM), 0.97; with BGJ398 + Navitoclax (first compound 0.01 µM), 0.315; with BGJ398 + Navitoclax (first compound 0.03162 µM), 0.271. The relative viability stood at 0.41 in the assay with BGJ398 + Navitoclax (first compound 0.1 µM); 0.683 with BGJ398 + Navitoclax (first compound 0.3162 µM); 0.646 in the assay with BGJ398 + Navitoclax (first compound 1 µM); 0.197 in assay [2] (first compound 0.02 µM); 0.193 in assay [2] (first compound 0.06325 µM); 0.222 in assay [2] (first compound 0.2 µM). In addition, the relative viability worked out at 0.232 in assay [2] (first compound 0.6325 µM) and 0.167 in assay [2] (first compound 2 µM).
As for EPLC-272H, the relative viability in assay [1] (0.02 µM) turned out to be 0.939; in assay [1] (0.06325 µM), 0.902; in assay [1] (0.2 µM) it was 0.98; in assay [1] (0.6325 µM), 0.799; in assay [1] (2 µM) it was 0.733; in the assay with BGJ398 (0.01 µM), 0.898. Further, the relative viability was found to be 0.899 with BGJ398 (0.03162 µM); 0.911 in the assay with BGJ398 (0.1 µM); 0.785 with BGJ398 (0.3162 µM); 0.778 with BGJ398 (1 µM); 1.04 with BGJ398 + Navitoclax (first compound 0.01 µM); 0.989 with BGJ398 + Navitoclax (first compound 0.03162 µM). For the same cell line, the relative viability with BGJ398 + Navitoclax (first compound 0.1 µM) came out at 1.16; with BGJ398 + Navitoclax (first compound 0.3162 µM), 1.01; with BGJ398 + Navitoclax (first compound 1 µM), 1.09; in assay [2] (first compound 0.02 µM), 0.253; in assay [2] (first compound 0.06325 µM), 0.261; in assay [2] (first compound 0.2 µM) it was 0.273. The relative viability came to 0.296 in assay [2] (first compound 0.6325 µM) and 0.293 in assay [2] (first compound 2 µM).
For NCI-H1915, the relative viability in assay [1] (0.02 µM) was 0.98; in assay [1] (0.06325 µM), 1.1; in assay [1] (0.2 µM) it was 1.07; in assay [1] (0.6325 µM), 0.966; in assay [1] (2 µM), 0.966; in the assay with BGJ398 (0.01 µM), 0.971. Moreover, the relative viability stood at 1.02 with BGJ398 (0.03162 µM); 0.995 in the assay with BGJ398 (0.1 µM); 0.965 with BGJ398 (0.3162 µM); 0.939 in the assay with BGJ398 (1 µM); 0.73 with BGJ398 + Navitoclax (first compound 0.01 µM); 0.786 with BGJ398 + Navitoclax (first compound 0.03162 µM). Besides, the relative viability with BGJ398 + Navitoclax (first compound 0.1 µM) turned out to be 0.774; in the assay with BGJ398 + Navitoclax (first compound 0.3162 µM) it was 0.77; in the assay with BGJ398 + Navitoclax (first compound 1 µM), 0.766; in assay [2] (first compound 0.02 µM), 0.289; in assay [2] (first compound 0.06325 µM), 0.305; in assay [2] (first compound 0.2 µM), 0.323. The results for the relative viability in assay [2] (first compound 0.6325 µM) and in assay [2] (first compound 2 µM) were 0.301 and 0.291, respectively.
NCI-H2405: the relative viability stood at 1.08 in assay [1] (0.02 µM); 1.02 in assay [1] (0.06325 µM); 1.02 in assay [1] (0.2 µM); 1.01 in assay [1] (0.6325 µM); 0.394 in assay [1] (2 µM); 1.04 with BGJ398 (0.01 µM). Further, the relative viability in the assay with BGJ398 (0.03162 µM) was determined as 1.11; with BGJ398 (0.1 µM) it was 0.99; in the assay with BGJ398 (0.3162 µM), 1.01; in the assay with BGJ398 (1 µM), 0.958; with BGJ398 + Navitoclax (first compound 0.01 µM), 0.806; with BGJ398 + Navitoclax (first compound 0.03162 µM), 0.926. Besides, the relative viability was determined as 0.969 with BGJ398 + Navitoclax (first compound 0.1 µM); 0.941 in the assay with BGJ398 + Navitoclax (first compound 0.3162 µM); 0.872 with BGJ398 + Navitoclax (first compound 1 µM); 0.622 in assay [2] (first compound 0.02 µM); 0.765 in assay [2] (first compound 0.06325 µM); 0.648 in assay [2] (first compound 0.2 µM). For the same cell line, the relative viability in assay [2] (first compound 0.6325 µM) is 0.623; in assay [2] (first compound 2 µM), 0.399.
